Assay results from patent US5538949A, “Modified platelet factor-4 and cleaved platelet factor 4” (Eli Lilly and Company, priority 1995, dated 1996).
Positions of bridges follow the written chain, without caps; N, C: chain ends. Chains are numbered I, II in the order given. No end group written: not given here.

B1: CPF-4: 16 amino acid chain (SEQ ID NO:2) disulfide bonded to the 54 amino acid chain of MPF-4 (SEQ ID NO:1) (protein)
chain 1: EAEEDGDLQCLCVKTT
chain 2: SQVRPRHITSLEVIKAGPHCPTAQLIATLKNGRKICLDLQAPLYKKIIKKLLES
modifications: disulfide I:10-II:20, I:12-II:36; not fully specified

Key:
[1] = Heparin affinity chromatography; details: elute in high-affinity heparin binding fraction (0.7M to 2.0M NaCl)
Description: The eluted proteins are then contacted with a heparin affinity resin. The ordinarily skilled artisan will readily realize that this step is best achieved in a column chromatography mode. Heparin affinity columns are commercially available from some of the same vendors mentioned above. In this step, the molecules of interest, both MPF-4 or CPF-4, bind to the heparin column and are eluted using an increasing linear salt gradient. The preferred salt is NaCl, and the portion of the gradient that is preferably collected is the 0.1-2.0M portion. The more highly preferred portion of the gradient to collect is the 0.7-2.0M portion.
The C4-pool was further fractionated by heparin affinity chromatography on a Econo-pac™ 5 ml heparin-sepharose cartridge (BioRad, Richmond, Calif. 94804). The bound proteins were eluted by a linear gradient of 0 to 2.0M NaCl in phosphate buffer saline (PBS) at a flow rate of 2.0 ml/min. The proteins that eluted from the column were pooled into three fractions: (1) non-heparin binding (flow through), (2) low-affinity heparin binding (0 to 0.7M NaCl), and (3) high-affinity heparin binding (0.7M to 2.0M NaCl) fractions.

endothelial cells = assay: Endothelial cell proliferation inhibition assay; format: cell-based, bovine; details: endothelial cells with 20 ng/ml fibroblast growth factor, four days growth, cell count; for IC50, inhibition of endothelial cell proliferation: average of 4 wells; for IC50: molar figure in parentheses
Procedure: Primary retinal capillary endothelial cell cultures were prepared in substantial accordance with the procedure described in Buzney et al., Retinal Vascular Endothelial Cells and Pericytes: Differential Growth Characteristics in vitro, Invest. Ophthalmol. Visual Sci. 24: 470-483 (1983) and separated from contaminating cells as described in Voyta et al., Identification and Isolation of Endothelial Cells Based on their Increased Uptake of Acetylated-low density Lipoprotein, J. Cell Biol. 99: 2034-2040 (1981).
Alternatively, bovine heart endothelial cells were obtained (American Type Culture Collection; Rockville, Md. 20852) for use in the assay. Irrespective of source, the endothelial cells were seeded into 24 well tissue culture plates at a cell density of 10,000 cells/well in Dulbecco's modified Eagle Medium (GIBCO; Grand Island, N.Y.) supplemented with 5% bovine serum albumin, 1% penicillin-streptomycin, 1% L-glutamine, and 20 ng/ml fibroblast growth factor. Immediately after seeding the cells, various amounts of PF-4 (Sigma Chemical Co.; St. Louis, Mo. 63178), MPF-4, or CPF-4 (isolated as describe in the above examples) were added to individual growth wells. MPF-4 and CPF-4 were tested at final concentrations ranging from 0.001 to 1 μ/ml. For comparison, native PF-4 was tested over a range of 0.001 to 3 μ/ml, and supplemented medium alone served as the negative control. The endothelial cell cultures were allowed to grow for four days at 37 C., 5% CO2 in a humidified tissue culture incubator. The cultures were then harvested individually by trypsinization and counted using a Zm-Coulter Counter (Coulter Electronics. Inc.; Opa Locka, Fla. 33054).
The results were plotted in FIG. 1, and each point on the graph represented the average of 4 data points; ie […]. […] The inhibitory concentration for MPF-4 is close to the physiological range of PF-4 found in human plasma (Id.).

Row | Molecule | heparin binding [1] | IC50, inhibition of endothelial cell proliferation (endothelial cells) | IC50 (endothelial cells) [nM]
1 | MPF-4: 54 amino acid protein, SEQ ID NO:1; homologous with the 54 C-terminal residues of PF-4, beginning with Ser-17 (SQVRPRHITSLEVIKAGPHCPTAQLIATLKNGRKICLDLQAPLYKKIIKKLLES) | bind heparin | 0.03 to 0.05 µg/mL | ~7
2 | PF-4: native human platelet factor-4 (Sigma Chemical Co.), tested for comparison [reference compound] | – | 0.8 to 1 µg/mL | ~130
3 | B1 | bind heparin | approximately 150 ng/ml | 20
